Data taken from patent US7691876B2, “Heterobicyclic amide compounds” (Hoffmann-La Roche Inc., priority 2006, dated 2010).

These molecules were tested against T1, cholesteryl ester transfer protein (CETP) (Homo sapiens, UniProt P11597) (assay: CETP activity SPA assay in the presence of plasma (human lipoprotein-deprived serum as source of CETP)). Conditions: source of CETP was human lipoprotein-deprived serum (LPDS), transfer of radiolabeled cholesteryl ester from HDL donor to biotin-labeled LDL acceptor particles.
T1 construct: the source of CETP was human lipoprotein-deprived serum (LPDS); from tissue; host or cells: human lipoprotein-deprived serum (LPDS)
T1 sequence (P11597 18-493): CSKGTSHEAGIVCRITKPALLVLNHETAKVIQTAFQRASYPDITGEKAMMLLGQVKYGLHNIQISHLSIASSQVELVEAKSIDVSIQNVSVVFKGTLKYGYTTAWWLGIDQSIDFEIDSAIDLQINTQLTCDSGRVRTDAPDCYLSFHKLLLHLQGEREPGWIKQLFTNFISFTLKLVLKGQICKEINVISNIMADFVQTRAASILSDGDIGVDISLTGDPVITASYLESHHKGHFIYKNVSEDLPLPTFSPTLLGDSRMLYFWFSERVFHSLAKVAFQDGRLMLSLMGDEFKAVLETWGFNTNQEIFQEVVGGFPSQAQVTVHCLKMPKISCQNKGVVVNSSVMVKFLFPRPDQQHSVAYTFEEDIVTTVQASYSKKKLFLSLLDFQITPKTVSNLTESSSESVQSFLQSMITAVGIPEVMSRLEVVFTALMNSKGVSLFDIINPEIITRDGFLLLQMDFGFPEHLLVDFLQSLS
Assay type: biochemical
Method: Activity of CETP inhibitors was determined using a buffer assay system. Partially purified CETP transferred radiolabeled cholesteryl ester from HDL donor particles to biotin-labeled LDL acceptor particles. The reaction was stopped by addition of streptavidin-coupled scintillation proximity assay (SPA) beads. These beads captured the biotinylated acceptor particles and transferred radioactivity was measured. The assay system was purchased and performed according to manufacturer's recommendations (Amersham Biosciences). Inhibitory activity of compounds was determined as percentage of positive control activity containing CETP together with donor and acceptor particles. Serial dilution of compounds was performed in order to determine the IC50 values.
Activity of the compounds was subsequently measured in the presence of plasma using the same assay as described above except that the source of CETP was human lipoprotein-deprived serum (LPDS). Inhibitory activity of compounds was determined as percentage of positive control activity containing all the assay components except compound. Serial dilution of compounds was performed in order to determine the IC50 values.
CC(C)(C)c1ccc(CN(CCc2ccc(F)cc2)C(=O)c2ncc(F)c3cc[nH]c23)cc1 [Compound 3.15, 4-fluoro-1H-pyrrolo[2,3-c]pyridine-7-carboxylic acid (4-tert-butyl-benzyl)-[2-(4-fluoro-phenyl)-ethyl]-amide] showed an IC50 of 0.437 µM.
CC(C)(C)c1ccc(CN(CCc2cccc(C(F)(F)F)c2)C(=O)c2nc(Cl)cc3cc[nH]c23)cc1 [Compound 3.22, 5-chloro-1H-pyrrolo[2,3-c]pyridine-7-carboxylic acid (4-tert-butyl-benzyl)-[2-(3-trifluoromethyl-phenyl)-ethyl]-amide] showed an IC50 of 0.175 µM.
Cc1cc2cc[nH]c2c(C(=O)N(CCc2ccc(Cl)c(Cl)c2)Cc2ccc(C(C)(C)C)cc2)n1 [Compound 3.14, 5-methyl-1H-pyrrolo[2,3-c]pyridine-7-carboxylic acid (4-tert-butyl-benzyl)-[2-(3,4-dichloro-phenyl)-ethyl]-amide] was tested, and the IC50 was 0.141 µM.
